Test results reported in patent publication USRE49223E1, “Water-soluble fluorescence compound and method for preparing the same” (SNU R&DB FOUNDATION, priority 2011, dated 2022).
Values belong to the compound of their own block, whether it stands above or below them.

Experiments:
[1] = Excitation and emission maxima by fluorescent spectrophotometer; assay type: physicochemical; conditions: solvent: Ref. Ex. 1 methanol, 2 ethanol, 3 n-propanol, 4 iso-propanol, 5 n-butanol, 6 DMSO
Protocol: UV absorption of the final fluorescent compound is determined by using a UV-VISIBLE spectrophotometer (Perkin Elmer, USA). Maximum values of excitation and emission are determined by using a fluorescent spectrophotometer (PTI, USA).
(§1) Except for conducting the photochemical reaction in the presence of an organic solvent such as ethanol (Reference Example 2), n-propanol (Reference Example 3), iso-propanol (Reference Example 4), n- butanol (Reference Example 5) or DMSO (Reference Example 6), respectively, the fluorescent compound is obtained from trans-resveratrol in the same manner as Reference Example 1.

[2] = Fluorescence quantum yield (relative vs rhodamin 6G; absolute PL quantum yield system); assay type: physicochemical; conditions: solvent: Ref. Ex. 1 methanol, 2 ethanol, 3 n-propanol, 4 iso-propanol, 5 n-butanol, 6 DMSO; for Absolute quantum yield: absolute PL quantum yield measurement system; for Relative quantum yield: relative to rhodamin 6G
Protocol: The absolute quantum yield is determined by using an absolute PL quantum yield measurement system (QE-1000, Otsuka Electronics, Japan). The relative quantum yield is determined by measuring the absorbance and emission intensity for each five concentrations for one solvent, determining the slope of said measured values, and comparing the slope with that of rhodamin 6G (the quantum yield of rhodamin 6G in ethanol is 0.95).
as §1

[3] = in ethanol; reference standard; cited from earlier work
[4] = Irradiation with natural light (photochemical stability); assay type: physicochemical; conditions: natural light for a long period of time
Description: Meanwhile, prior art (PCT/EP01/06103) discloses using polydatin of formula 5 above as sunblock.

[5] = tested on: osteosarcoma cell line (U2OS); experiment: Western blotting test of cell extinction and damage markers (Caspase-3, PARP); assay type: cell-based; conditions: U2OS osteosarcoma cells; 10 μM (FIG. 15)
Protocol: (§2) After a certain period of time, the degree of cell extinction is evaluated by examining the degree of expression of extinction and damage of a specific factor by using Western Blotting Test and the result is shown in FIG. 15.

[6] = tested on: breast epithelial cell line; experiment: Cytomorphology test (cytotoxicity); assay type: cell-based; conditions: breast epithelial cells, cultured about 72 hours, microscopic examination (FIG. 13)
Protocol: (§3) In the presence of a test compound or a comparative compound, a cell line is cultured for a certain period of time (about 72 hours) and then a cytotoxicity test is conducted. As a control group, a blank test is conducted in the same manner as above without adding any compound including the test compound and the comparative compound.

breast epithelial cell = experiment: Trypan blue exclusion test (cytotoxicity); assay type: cell-based; conditions: both test concentrations 1 μM and 10 μM (FIG. 14)
Protocol: as §3

[7] = tested on: breast epithelial cell line; experiment: Western blotting test of cell extinction and damage markers (Caspase-3, PARP); assay type: cell-based; conditions: 1, 10 and 100 μM (FIG. 15)
Protocol: as §2

[8] = listed as Reference Example 2, in Ethanol solvent
[9] = listed as Reference Example 3, in n-Propanol solvent
[10] = listed as Reference Example 4, in iso-Propanol solvent
[11] = listed as Reference Example 5, in n-Butanol solvent
[12] = listed as Reference Example 6, in DMSO solvent

Emission [1]: 547 nm
Excitation [1]: 390 nm
Emission [1, 8]: 540 nm
Emission [1, 9]: 534 nm
Emission [1, 10]: 525 nm
Emission [1, 11]: 536 nm
Emission [1, 12]: 497 nm
Absolute quantum yield [2]: 0.058
Absolute quantum yield [2, 8]: 0.145
Absolute quantum yield [2, 9]: 0.212
Absolute quantum yield [2, 10]: 0.311
Absolute quantum yield [2, 11]: 0.254
Absolute quantum yield [2, 12]: 0.439
Relative quantum yield [2]: 0.035
Relative quantum yield [2, 8]: 0.103
Relative quantum yield [2, 9]: 0.155
Relative quantum yield [2, 10]: 0.247
Relative quantum yield [2, 11]: 0.200
Relative quantum yield [2, 12]: 0.523
SMILES: CC(=O)/C=C/c1ccc2cc(O)cc(O)c2c1 [Reference Example 1, (E)-4-(6,8-dihydroxynaphthalen-2-yl) but-3-en-2-one]

SMILES: CCN=c1cc2oc3cc(NCC)c(C)cc3c(-c3ccccc3C(=O)OCC)c-2cc1C.Cl [rhodamin 6G]
quantum yield [3]: 0.95

SMILES: OC[C@H]1O[C@@H](Oc2cc(O)cc(/C=C/c3ccc(O)cc3)c2)[C@H](O)[C@@H](O)[C@@H]1O [polydatin, resveratrol 3-O-β-glucoside]
photochemical reaction product after irradiation [4]: any photochemical reaction product could not be found

SMILES: COc1cc([C@@H]2c3cc4c(cc3[C@@H](O[C@@H]3O[C@@H]5CO[C@@H](C)O[C@H]5[C@H](O)[C@H]3O)[C@H]3COC(=O)[C@H]23)OCO4)cc(OC)c1O [Etoposide]
Western blot peaks resulting from cell extinction and damage [5]: significantly remarkable peak at 17 kDa, 19 kDa and 89 kDa positions

SMILES: CC(=O)/C=C/c1ccc2cc(O[C@@H]3O[C@H](CO)[C@@H](O)[C@H](O)[C@H]3O)cc(O)c2c1 [Resveratrone glucoside, (E)-4-(8-hydroxy-6-(((2S,3R,4S,5S,6R)-3,4,5-trihydroxy-6-(hydroxymethyl)tetrahydro-2H-pyran-2-yl)oxy)naphthalen-2-yl)but-3-en-2-one]
cytomorphology and number change of the cultured cell vs control group [6]: no significant difference from the control group
number of cells alive vs control group (breast epithelial cell): number of cells similar to that of the control group
Western blot peaks resulting from cell extinction and damage [7]: no peak at 17 kDa, 19 kDa and 89 kDa positions
